These results are taken from ChEMBL document CHEMBL1201862, “PubChem BioAssay data set” (2004).

Structures are written as SMILES.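 Growth conditions: 96-well plates. Treatment: test compound, 48 hours, 5 concentrations. Analysis: linear interpolation between bracketing concentrations; unreached endpoints set to highest concentration. Here, GI50 denotes the concentration required for 50% inhibition of growth.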 The source made the active and inactive calls. Rule as the data show it: active = GI50 up to about 1.1 µM and inactive = higher.

Some test systems named below: SK-OV-3; K562; HCT-15; LOX IMVI; SNB-75; Malme-3M; SK-MEL-2; NCI-H460; M14; HOP-62; SN12C; OVCAR-5; HOP-92; SNB-19; U-251; MOLT-4; HCT-116; RPMI-8226; OVCAR-3.
Holding throughout (experiment): inhibition of tumour cell growth, NCI panel, 48 h

As for `CN(C(=O)C12C3C4C1C1C4(C(=O)C45C6C7C4C4C5C6C74C)C3C12C)C(C)(C)C` (stereo unspecified), the GI50 was 90.4 µM (inactive) in the assay on SK-OV-3; 26.4 µM (inactive) in the assay with K562; 28.3 µM in the assay with HCT-15; 48.1 µM (inactive) in the assay with LOX IMVI; > 100 µM (inactive) in the assay with SNB-75; > 100 µM (inactive) in the assay with Malme-3M. Also, the GI50 with SK-MEL-2 is > 100 µM (inactive); in the assay with NCI-H460 it was 54.6 µM (inactive); in the assay on M14, > 100 µM (inactive); with HOP-62, > 100 µM (inactive); in the assay on SN12C it was > 100 µM (inactive); in the assay with OVCAR-5, 88.1 µM (inactive). For the same compound, the GI50 is 28.6 µM (inactive) with HOP-92; 69.5 µM (inactive) with SNB-19; 79.3 µM (inactive) in the assay on U-251; 40.3 µM (inactive) in the assay on MOLT-4; 52.7 µM (inactive) in the assay on HCT-116.

On to `CC(C)=NN/C(=N\c1ccc(Cl)cc1)NS(=O)(=O)c1cc2ccccc2s1`, for which the GI50 in the assay with K562 was 23 µM (inactive); with HCT-15 it was 71.8 µM; in the assay on LOX IMVI, 77.3 µM (inactive); with Malme-3M it was 89.9 µM (inactive); in the assay with SK-MEL-2 it was 65.8 µM (inactive); in the assay on NCI-H460 it was > 100 µM (inactive). For the same compound, the GI50 in the assay on M14 is 56.5 µM (inactive); with HOP-62 it was > 100 µM (inactive); in the assay with SN12C, 50.7 µM (inactive); with OVCAR-5 it was 32.7 µM (inactive); in the assay with HOP-92, 38.9 µM (inactive); with RPMI-8226 it was 29 µM (inactive). Also, the GI50 in the assay with SNB-19 is > 100 µM (inactive); with U-251, > 100 µM (inactive); in the assay on MOLT-4 it was 16.6 µM (inactive); in the assay on OVCAR-3, 57 µM (inactive); in the assay on HCT-116, 40.4 µM (inactive).

With `COC(=O)C1CC2C=CC=CC(=O)C2(C)C1` (stereo unspecified), the GI50 was > 100 µM (inactive) with SK-OV-3; 30.7 µM (inactive) with K562; 31 µM with HCT-15; 53.3 µM (inactive) in the assay with LOX IMVI; 49.7 µM (inactive) in the assay on Malme-3M; 59.6 µM (inactive) with SK-MEL-2. For the same compound, the GI50 in the assay on NCI-H460 was 41.8 µM (inactive); in the assay with M14, 30.5 µM (inactive); in the assay with HOP-62, > 100 µM (inactive); with SN12C, 81.1 µM (inactive); in the assay on OVCAR-5 it was > 100 µM (inactive); with RPMI-8226, 22.6 µM (inactive). For the same compound, the GI50 is 76.7 µM (inactive) with SNB-19; > 100 µM (inactive) in the assay on U-251; 25.6 µM (inactive) with MOLT-4; > 100 µM (inactive) in the assay on OVCAR-3; 28 µM (inactive) in the assay on HCT-116.

Take `COC(=O)NN1C(C)=C(C(=O)OC)C2(CCOC2=O)C1(C)O` (stereo unspecified): the GI50 was > 100 µM (inactive) with SK-OV-3; > 100 µM (inactive) in the assay on K562; greater than 100 µM with HCT-15; > 100 µM (inactive) in the assay on LOX IMVI; > 100 µM (inactive) in the assay with Malme-3M; > 100 µM (inactive) with SK-MEL-2. In addition, the GI50 in the assay with NCI-H460, in the assay with M14, in the assay with HOP-62, in the assay with SN12C, in the assay on OVCAR-5 and in the assay on HOP-92 was > 100 µM (inactive) in each case. Also, the GI50 in the assay with RPMI-8226, with SNB-19, in the assay on U-251, with MOLT-4, in the assay with OVCAR-3 and in the assay on HCT-116 was > 100 µM (inactive) each time.

On to `CC(C)N(C(=O)C12C3C4C1C1C2C3C41C(O)C(C)(C)C)C(C)C` (stereo unspecified), for which the GI50 in the assay on SK-OV-3 was > 50 µM (inactive); with K562 it was > 50 µM (inactive); with HCT-15, greater than 50 µM; in the assay on SNB-75, 26.2 µM (inactive); in the assay with Malme-3M, > 50 µM (inactive); in the assay on M14, > 50 µM (inactive). Also, the GI50 in the assay on HOP-62 was > 50 µM (inactive); in the assay on SN12C, > 50 µM (inactive); in the assay with HOP-92, 34.7 µM (inactive); in the assay on SNB-19, > 50 µM (inactive); in the assay with U-251, > 50 µM (inactive); in the assay with MOLT-4, > 50 µM (inactive). The GI50 with OVCAR-3 and with HCT-116 was > 50 µM (inactive) each time.

Turning to `Nc1cc(N2CCOCC2)nc(=O)n1-c1ccc(Cl)cc1`, the GI50 with SK-OV-3 is > 100 µM (inactive); with K562 it was > 100 µM (inactive); in the assay with HCT-15, greater than 100 µM; in the assay with LOX IMVI, > 100 µM (inactive); in the assay on SNB-75, > 100 µM (inactive); with SK-MEL-2, > 100 µM (inactive). The GI50 in the assay on NCI-H460, in the assay with M14, in the assay with HOP-62, in the assay with SN12C, in the assay on OVCAR-5 and in the assay with HOP-92 was > 100 µM (inactive) each time. Moreover, the GI50 in the assay on RPMI-8226, in the assay with SNB-19, in the assay on U-251, with MOLT-4, in the assay on OVCAR-3 and in the assay with HCT-116 was > 100 µM (inactive) in each case.

On to `CC1(C)O[C@@H](CC/C=C/CO)[C@H](CC/C=C/CO)O1`, for which the GI50 in the assay with SK-OV-3 was > 100 µM (inactive); in the assay on K562 it was > 100 µM (inactive); in the assay with HCT-15, greater than 100 µM; in the assay on LOX IMVI, > 100 µM (inactive); with SNB-75, > 100 µM (inactive); in the assay on Malme-3M it was > 100 µM (inactive). For the same compound, the GI50 in the assay with SK-MEL-2, in the assay on NCI-H460, with M14, in the assay with HOP-62, with SN12C and with OVCAR-5 was > 100 µM (inactive) in each case. Further, the GI50 in the assay with HOP-92, in the assay on RPMI-8226, in the assay on SNB-19, in the assay with U-251, in the assay on MOLT-4 and in the assay on OVCAR-3 was > 100 µM (inactive) in each case. For the same compound, in the assay with HCT-116, the GI50 was > 100 µM (inactive).

For the compound `O=C(/C=C\c1cccc2ccccc12)c1ccc(F)cc1`, the GI50 in the assay with SK-OV-3 is 23.5 µM (inactive); in the assay on K562 it was 11.1 µM (inactive); in the assay on HCT-15 it was 15.1 µM; with SNB-75, 30.5 µM (inactive); in the assay on Malme-3M, 17.7 µM (inactive); in the assay with NCI-H460 it was 17.8 µM (inactive). In addition, the GI50 with M14 was 16.2 µM (inactive); with HOP-62, 69.8 µM (inactive); with SN12C it was 17.3 µM (inactive); with OVCAR-5, 16.6 µM (inactive); in the assay with HOP-92 it was 11.9 µM (inactive); in the assay with RPMI-8226, 4.21 µM (inactive). For the same compound, the GI50 with SNB-19 is 16.6 µM (inactive); in the assay with U-251, 15.8 µM (inactive); in the assay with MOLT-4 it was 16 µM (inactive); in the assay on OVCAR-3, 17.1 µM (inactive); in the assay on HCT-116, 13.9 µM (inactive).

Consider `O=C(O)CCN(CCCN(CCC(=O)O)CCC(=O)O)CCC(=O)O`, for which the GI50 in the assay with SK-OV-3 is > 100 µM (inactive); with K562, > 100 µM (inactive); in the assay on HCT-15 it was greater than 100 µM; in the assay with LOX IMVI, > 100 µM (inactive); in the assay on SNB-75 it was 74.8 µM (inactive); in the assay with Malme-3M, > 100 µM (inactive). Besides, the GI50 in the assay on SK-MEL-2, with NCI-H460, with M14, with HOP-62, with SN12C and in the assay on OVCAR-5 was > 100 µM (inactive) in each case. Also, the GI50 with HOP-92, in the assay on RPMI-8226, with U-251, with MOLT-4, in the assay on OVCAR-3 and in the assay with HCT-116 was > 100 µM (inactive) each time.

In the case of `N#C/C(N)=N/c1ccccc1`, the GI50 in the assay with SK-OV-3 is > 100 µM (inactive); in the assay on K562 it was 71 µM (inactive); in the assay with HCT-15 it was greater than 100 µM; in the assay with LOX IMVI, 68.7 µM (inactive); with SNB-75 it was > 100 µM (inactive); in the assay on Malme-3M, > 100 µM (inactive). For the same compound, the GI50 in the assay on SK-MEL-2, in the assay on NCI-H460, in the assay on M14, in the assay on HOP-62, in the assay on SN12C and with OVCAR-5 was > 100 µM (inactive) each time. For the same compound, the GI50 in the assay with HOP-92, in the assay on RPMI-8226, in the assay on SNB-19, with U-251, in the assay on MOLT-4 and with OVCAR-3 was > 100 µM (inactive) each time. In addition, in the assay on HCT-116, the GI50 is > 100 µM (inactive).

In the case of `COc1cc2c(c(OC)c1)C(C)=NC(C)C2` (stereo unspecified), the GI50 in the assay with SK-OV-3 is > 100 µM (inactive); in the assay on K562, > 100 µM (inactive); in the assay with HCT-15, greater than 100 µM; in the assay with LOX IMVI, > 100 µM (inactive); in the assay on Malme-3M it was > 100 µM (inactive); in the assay with NCI-H460, > 100 µM (inactive). Moreover, the GI50 with M14, in the assay on HOP-62, with SN12C, in the assay on RPMI-8226, in the assay on SNB-19 and with MOLT-4 was > 100 µM (inactive) throughout. For the same compound, the GI50 in the assay on HCT-116 is 51.2 µM (inactive).

In the case of `Cc1ccc(/C=C2\CCCc3ccccc3C2=O)cc1`, the GI50 in the assay with SK-OV-3 is 13.2 µM (inactive); with K562, 12.2 µM (inactive); in the assay with HCT-15, 6.64 µM; in the assay with LOX IMVI, 14.9 µM (inactive); with SNB-75, 21.2 µM (inactive); in the assay on Malme-3M, 8.95 µM (inactive). Further, the GI50 in the assay on SK-MEL-2 was 2.38 µM (inactive); in the assay with NCI-H460 it was 7.23 µM (inactive); in the assay on M14, 3.21 µM (inactive); in the assay on HOP-62 it was 9.2 µM (inactive); in the assay on SN12C, 11.7 µM (inactive); with OVCAR-5, 10.3 µM (inactive). Moreover, the GI50 was 18.5 µM (inactive) in the assay on HOP-92; 16.3 µM (inactive) with RPMI-8226; 19.5 µM (inactive) in the assay on SNB-19; 17.4 µM (inactive) in the assay on U-251; 17.7 µM (inactive) with MOLT-4; 15 µM (inactive) with OVCAR-3. Besides, the GI50 in the assay with HCT-116 was 13.7 µM (inactive).
